Drawing on article PMC2556091 (The EMBO Journal, 2008), this text covers Kd for one compound.

Usually Kd stands for the equilibrium constant for the complex coming apart.

This test concerns the target T1, XcOGT (Xanthomonas campestris, UniProt Q8PC69).
T1 sequence (Q8PC69 1-568): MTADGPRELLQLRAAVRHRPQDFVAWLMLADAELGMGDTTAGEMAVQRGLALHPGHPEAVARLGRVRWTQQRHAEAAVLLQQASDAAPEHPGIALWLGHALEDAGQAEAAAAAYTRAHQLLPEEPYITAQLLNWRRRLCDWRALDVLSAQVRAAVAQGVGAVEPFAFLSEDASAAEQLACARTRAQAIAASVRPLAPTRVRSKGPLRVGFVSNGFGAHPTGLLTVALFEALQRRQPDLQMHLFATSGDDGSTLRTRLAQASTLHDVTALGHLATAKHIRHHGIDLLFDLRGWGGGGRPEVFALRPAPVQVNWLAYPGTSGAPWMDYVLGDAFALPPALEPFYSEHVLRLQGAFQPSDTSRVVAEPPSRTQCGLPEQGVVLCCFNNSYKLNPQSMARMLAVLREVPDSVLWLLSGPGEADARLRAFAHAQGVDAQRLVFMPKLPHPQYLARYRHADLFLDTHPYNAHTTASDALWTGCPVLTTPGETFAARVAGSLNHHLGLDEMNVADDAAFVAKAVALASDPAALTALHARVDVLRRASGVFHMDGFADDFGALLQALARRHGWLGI
The experiment in a line: surface plasmon resonance. The format is binding. In general terms: SPR reads the build-up and loss of mass on a sensor chip optically.

`CC(=O)N[C@H]1[C@@H](OP(=O)(O)OP(=O)(O)OC[C@H]2O[C@@H](n3ccc(=O)[nH]c3=O)[C@H](O)[C@@H]2O)O[C@H](CO)[C@@H](O)[C@@H]1O` [UDP-GlcNAc]: the affinity, expressed as Kd, was 4.2 µM.
